Experimental data as given in patent US20260028326A1, “COMPOUND BASED ON ISOINDOLINE-SUBSTITUTED GLUTARIMIDE BACKBONE AND USE THEREOF” (GLUETACS THERAPEUTICS (SHANGHAI) CO., LTD., priority 2022, published 2026).

Legend:
CCRF-CEM cells = assay: Tumor cell proliferation IC50 (CCK-8), CCRF-CEM; settings: Homo sapiens, 96 h, read-out: IC50 for inhibiting the proliferation of tumor cells, CCRF-CEM;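 note: cell viability measured with CCK-8 reagent after compound treatment, IC50 taken from plotted growth inhibition curves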
Description: (§1) The tumor cells used herein were cultured in a cell culture medium listed in table A at 37° C. in an incubator with 5% CO2.
(§2) After the cells were treated with the compounds of the present disclosure for a period of time, the cell viability detection reagent was added to the culture medium for cell viability assessment according to the instructions provided with the CCK-8 kit. […] The growth inhibition of the compounds of the present disclosure on cells was plotted by Prism Graphpad software, and the IC50 values of the compounds of the present disclosure were calculated therefrom.

MDA-MB-231 cells = assay: Tumor cell proliferation IC50 (CCK-8), MDA-MB-231; settings: Homo sapiens, MDA-MB-231, 96 h, read-out: IC50 for inhibiting the proliferation of tumor cells, MDA-MB-231
Description: Prior to experimentation, all cells used were correctly identified by STR profiling, and tested negative for mycoplasma through routine screenings.
as §2

[1] = target: human Cereblon WT GST-tagged protein (Homo sapiens (Human), UniProt Q96SW2); assay: CRBN-binding affinity, HTRF (CEREBLON BINDING kit)
Chain of human Cereblon WT GST-tagged protein (Q96SW2 whole entry): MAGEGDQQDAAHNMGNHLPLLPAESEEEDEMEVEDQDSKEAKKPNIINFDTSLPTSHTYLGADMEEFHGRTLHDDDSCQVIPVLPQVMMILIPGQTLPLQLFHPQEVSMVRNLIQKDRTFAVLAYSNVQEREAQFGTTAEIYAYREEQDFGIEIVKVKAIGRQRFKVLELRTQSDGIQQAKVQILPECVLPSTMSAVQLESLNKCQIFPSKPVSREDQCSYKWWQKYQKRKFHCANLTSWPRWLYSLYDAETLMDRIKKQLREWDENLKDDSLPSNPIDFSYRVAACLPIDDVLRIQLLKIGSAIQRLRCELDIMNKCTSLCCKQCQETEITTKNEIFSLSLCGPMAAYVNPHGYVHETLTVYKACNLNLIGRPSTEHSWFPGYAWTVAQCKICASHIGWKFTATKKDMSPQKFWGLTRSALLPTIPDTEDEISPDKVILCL
Outline: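 GST-tagged human WT Cereblon incubated with compound, then Thalidomide-Re tracer and anti-GST Eu antibody added. Displacement read by HTRF, reported as CRBN binding inhibition rate against blank control wells without protein.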

[2] = Pharmacokinetic study, oral administration, mouse plasma; assay type: in vivo, mice
Description: The experimental animals used can be those commonly used in pharmacokinetic experiments, e.g., adult and healthy rodents (e.g., mice, rats (such as Sprague-Dawley (SD) rats), guinea pigs) or non-rodents (rabbits, dogs, and monkeys). In the present disclosure, mice were used as the experimental animals.
The experimental animals were divided into two groups: a control group (for collecting blank plasma) and an orally administered group (dosed at 10 mg/kg or 30 mg/kg). Blood samples were collected at predetermined sampling time points after administration, such as 0.25 h, 0.5 h, 1 h, 2 h, 4 h, 8 h, and 24 h post-dosing. Blank plasma was collected from the control group.
Plasma samples were preprocessed before analysis: 10 μL of 50% acetonitrile and 200 μL of internal standard solution (containing 50 ng/mL dexamethasone in acetonitrile) were added to 10 μL of plasma samples. For the blank control group, the same volume of acetonitrile was added instead of the internal standard. The processed samples were vortexed, centrifuged, and the supernatant was taken for LC-MS/MS injection analysis.
After preparing standard curves and quality control (QC) samples, the concentrations of the compounds in the plasma samples were determined by LC-MS/MS analysis. Based on the plasma concentration data obtained from LC-MS/MS analysis, the pharmacokinetic parameters of the test compounds were calculated using the non-compartmental model in the pharmacokinetic calculation software WinNonlin v8.1.

IKZF1 protein = IKZF1 protein (Homo sapiens (Human), UniProt Q13422+Q96SW2); assay: Western-blot assay of substrate protein degradation in hPBMC, IKZF1; assay type: cell-based; settings: hPBMC cells, compound 500 nM, 24 hours, Western blot
Chain of IKZF1 protein (Q13422 whole entry): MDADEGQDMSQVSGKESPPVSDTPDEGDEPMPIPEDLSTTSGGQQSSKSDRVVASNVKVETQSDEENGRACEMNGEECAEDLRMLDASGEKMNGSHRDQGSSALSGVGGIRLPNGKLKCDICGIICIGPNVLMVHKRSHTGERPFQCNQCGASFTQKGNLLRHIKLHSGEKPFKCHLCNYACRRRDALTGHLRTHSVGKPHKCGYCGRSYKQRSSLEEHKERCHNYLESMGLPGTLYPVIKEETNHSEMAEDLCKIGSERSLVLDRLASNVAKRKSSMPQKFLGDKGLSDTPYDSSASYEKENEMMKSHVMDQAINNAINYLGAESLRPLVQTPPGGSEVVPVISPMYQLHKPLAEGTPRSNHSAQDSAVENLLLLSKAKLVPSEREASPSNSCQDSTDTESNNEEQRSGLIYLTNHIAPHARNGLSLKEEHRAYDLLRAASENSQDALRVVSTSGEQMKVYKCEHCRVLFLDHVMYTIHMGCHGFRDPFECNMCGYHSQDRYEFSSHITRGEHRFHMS
Chain of IKZF1 protein (Q96SW2 whole entry): as the sequence (Q96SW2 whole entry) above
Chain of IKZF1 protein (Q16531 whole entry partner): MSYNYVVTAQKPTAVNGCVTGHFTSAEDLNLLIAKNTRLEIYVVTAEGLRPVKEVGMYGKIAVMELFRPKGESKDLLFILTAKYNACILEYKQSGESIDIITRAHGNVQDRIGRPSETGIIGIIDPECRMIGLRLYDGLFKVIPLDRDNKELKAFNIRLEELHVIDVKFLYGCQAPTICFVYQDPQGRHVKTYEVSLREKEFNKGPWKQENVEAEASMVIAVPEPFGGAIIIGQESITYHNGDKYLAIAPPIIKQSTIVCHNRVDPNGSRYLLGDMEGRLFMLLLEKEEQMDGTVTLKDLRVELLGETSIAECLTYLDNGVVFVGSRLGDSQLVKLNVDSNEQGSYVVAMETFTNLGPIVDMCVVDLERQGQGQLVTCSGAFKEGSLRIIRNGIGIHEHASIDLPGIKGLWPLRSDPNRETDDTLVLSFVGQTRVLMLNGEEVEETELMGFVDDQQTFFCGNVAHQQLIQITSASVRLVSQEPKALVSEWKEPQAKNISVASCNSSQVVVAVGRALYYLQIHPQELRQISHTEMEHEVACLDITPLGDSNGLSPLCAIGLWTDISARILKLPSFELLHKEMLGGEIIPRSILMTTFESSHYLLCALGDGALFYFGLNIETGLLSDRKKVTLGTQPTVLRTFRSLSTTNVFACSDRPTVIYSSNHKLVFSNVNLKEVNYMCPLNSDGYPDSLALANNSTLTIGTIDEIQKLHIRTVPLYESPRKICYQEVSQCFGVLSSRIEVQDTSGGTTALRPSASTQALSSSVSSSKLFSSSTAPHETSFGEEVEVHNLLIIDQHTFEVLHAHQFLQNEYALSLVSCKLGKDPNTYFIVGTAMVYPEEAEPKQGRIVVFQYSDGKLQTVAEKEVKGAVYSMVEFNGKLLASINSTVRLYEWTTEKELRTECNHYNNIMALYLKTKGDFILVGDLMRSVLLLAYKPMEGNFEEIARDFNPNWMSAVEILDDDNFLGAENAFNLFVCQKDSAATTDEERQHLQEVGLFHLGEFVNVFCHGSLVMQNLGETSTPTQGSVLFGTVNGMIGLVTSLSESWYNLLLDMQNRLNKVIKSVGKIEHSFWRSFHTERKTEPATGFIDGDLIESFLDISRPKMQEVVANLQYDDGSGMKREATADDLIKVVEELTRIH

IKZF3 protein = IKZF3 protein (Homo sapiens (Human), UniProt Q96SW2+Q9UKT9); assay: Western-blot assay of substrate protein degradation in hPBMC, IKZF3; assay type: cell-based; settings: hPBMC cells, compound 500 nM, 24 hours, Western blot
Chain of IKZF3 protein (Q9UKT9 whole entry): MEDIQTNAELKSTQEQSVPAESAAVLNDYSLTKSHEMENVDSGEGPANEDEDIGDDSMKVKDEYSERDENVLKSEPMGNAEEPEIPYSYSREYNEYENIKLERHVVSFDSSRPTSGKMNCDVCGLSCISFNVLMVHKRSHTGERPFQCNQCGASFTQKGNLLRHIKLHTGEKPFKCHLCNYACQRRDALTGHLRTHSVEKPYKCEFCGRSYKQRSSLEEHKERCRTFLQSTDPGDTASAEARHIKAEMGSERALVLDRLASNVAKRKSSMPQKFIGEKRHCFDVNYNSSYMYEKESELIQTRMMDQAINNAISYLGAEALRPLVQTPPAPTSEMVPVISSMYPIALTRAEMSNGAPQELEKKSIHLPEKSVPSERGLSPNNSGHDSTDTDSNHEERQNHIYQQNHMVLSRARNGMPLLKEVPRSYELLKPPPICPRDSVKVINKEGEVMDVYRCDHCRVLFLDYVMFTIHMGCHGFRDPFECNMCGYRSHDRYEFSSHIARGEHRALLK
Chain of IKZF3 protein (Q96SW2 whole entry): as the sequence (Q96SW2 whole entry) above
Chain of IKZF3 protein (Q16531 whole entry partner): as the sequence (Q16531 whole entry partner) above

GSPT1 protein = GSPT1 protein (Homo sapiens (Human), UniProt P15170+Q96SW2); assay: Western-blot assay of substrate protein degradation in hPBMC, GSPT1; assay type: cell-based; settings: hPBMC cells, compound 500 nM, 24 hours, Western blot
Chain of GSPT1 protein (P15170 whole entry): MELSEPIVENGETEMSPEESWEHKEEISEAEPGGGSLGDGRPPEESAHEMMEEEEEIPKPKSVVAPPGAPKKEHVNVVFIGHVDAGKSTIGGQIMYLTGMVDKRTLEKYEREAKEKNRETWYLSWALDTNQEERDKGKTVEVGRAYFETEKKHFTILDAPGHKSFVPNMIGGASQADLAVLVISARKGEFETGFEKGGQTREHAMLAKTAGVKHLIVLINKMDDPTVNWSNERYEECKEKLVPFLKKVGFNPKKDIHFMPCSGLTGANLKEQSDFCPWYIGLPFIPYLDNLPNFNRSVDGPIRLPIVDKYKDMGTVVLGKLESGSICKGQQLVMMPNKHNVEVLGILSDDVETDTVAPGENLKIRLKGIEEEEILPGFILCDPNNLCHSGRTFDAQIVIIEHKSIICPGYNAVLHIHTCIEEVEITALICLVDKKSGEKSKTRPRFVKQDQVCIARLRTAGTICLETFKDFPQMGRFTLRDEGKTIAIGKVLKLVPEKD
Chain of GSPT1 protein (Q96SW2 whole entry): as the sequence (Q96SW2 whole entry) above
Chain of GSPT1 protein (Q16531 whole entry partner): as the sequence (Q16531 whole entry partner) above

Mino cells = assay: Tumor cell proliferation IC50 (CCK-8), Mino; settings: Homo sapiens, 72 h, read-out: IC50 for inhibiting the proliferation of tumor cells, Mino;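 note: cell viability assessed with CCK-8 reagent after compound exposure, IC50 derived from plotted growth inhibition curves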
Description: as §1, §2

MV-4-11 cells = assay: Tumor cell proliferation IC50 (CCK-8), MV-4-11; settings: Homo sapiens, MV4-11, 96 h, read-out: IC50 for inhibiting the proliferation of tumor cells, MV-4-11
Description: as §1, §2

MM.1S cells = assay: Tumor cell proliferation IC50 (CCK-8), MM.1S; settings: Homo sapiens, MM1.S, 72 h, read-out: IC50 for inhibiting the proliferation of tumor cells, MM.1S;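 note: viability of cultured cells read by CCK-8 reagent after compound exposure, growth inhibition curves fitted to derive IC50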
Description: as §1, §2

Kasumi-1 cells = assay: Tumor cell proliferation IC50 (CCK-8), Kasumi-1; settings: Homo sapiens, Kasumi 1, 72 h, read-out: IC50 for inhibiting the proliferation of tumor cells, Kasumi-1
Description: as §1, §2

Daudi cells = assay: Tumor cell proliferation IC50 (CCK-8), Daudi; settings: Homo sapiens, read-out: IC50 for inhibiting the proliferation of tumor cells, Daudi;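 note: cell viability read with CCK-8 reagent after compound exposure of Daudi cells, IC50 derived from plotted growth inhibition curves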
Description: as §1, §2

SMILES	IC50 (CCRF-CEM cells) [nM]	IC50 (MDA-MB-231 cells) [nM]	IC50 [1] [nM]	AUC(0-t) ([2]; p.o. 30 mg/kg) [ng·h/mL]	AUC(0-t) ([2]; p.o. 10 mg/kg) [ng·h/mL]	IC50 (Mino cells) [nM]	IC50 (MV-4-11 cells) [nM]	IC50 (MM.1S cells) [nM]	IC50 (Kasumi-1 cells) [nM]	IC50 (Daudi cells) [nM]	residual substrate protein level, IKZF1 (IKZF1 protein)	residual substrate protein level, IKZF3 (IKZF3 protein)	residual substrate protein level, GSPT1 (GSPT1 protein)
CC1(C)CCC(CN2CCN(Cc3cc(F)c4c(c3)CN(C3CCC(=O)NC3=O)C4=O)CC2)=C(c2ccc(Cl)cc2)C1 (stereo not drawn) [GT-03469, 3-(5-((4-((4′-chloro-5,5-dimethyl-3,4,5,6-tetrahydro-[1,1′-biphenyl]-2-yl)methyl)piperazin-1-yl)methyl)-7-fluoro-1-oxoisoindolin-2-yl)piperidine-2,6-dione]	1000 to 5000	100 to 500	2120	–	–	–	–	–	–	–	–	–	–
CC1(C)CCC(CN2CCN(Cc3cccc4c3CN(C3CCC(=O)NC3=O)C4=O)CC2)=C(c2ccc(Cl)cc2)C1 (stereo not drawn) [GT-03649, 3-(4-((4-((4′-chloro-5,5-dimethyl-3,4,5,6-tetrahydro-[1,1′-biphenyl]-2-yl)methyl)piperazin-1-yl)methyl)-1-oxoisoindolin-2-yl)piperidine-2,6-dione]	–	–	–	> 500	–	–	–	–	–	–	–	–	–
CC1(C)CCC(CN2CCN(Cc3ccc4c(c3F)CN(C3CCC(=O)NC3=O)C4=O)CC2)=C(c2ccc(F)cc2)C1 (stereo not drawn) [GT-05390, 3-(4-fluoro-5-((4-((4′-fluoro-5,5-dimethyl-3,4,5,6-tetrahydro-[1,1′-biphenyl]-2-yl)methyl)piperazin-1-yl)methyl)-1-oxoisoindolin-2-yl)piperidine-2,6-dione]	50 to 100	–	500	–	–	10 to 50	100 to 500	10 to 50	–	–	A (A represents a residual substrate protein level of <50%)	A (A represents a residual substrate protein level of <50%)	A (A represents a residual substrate protein level of <50%)
CC1(C)CCC(CN2CCN(Cc3cc4c(cc3F)C(=O)N(C3CCC(=O)NC3=O)C4)CC2)=C(c2ccc(F)cc2)C1 (stereo not drawn) [GT-05391, 3-(6-fluoro-5-((4-((4′-fluoro-5,5-dimethyl-3,4,5,6-tetrahydro-[1,1′-biphenyl]-2-yl)methyl)piperazin-1-yl)methyl)-1-oxoisoindolin-2-yl)piperidine-2,6-dione]	< 5	–	570	–	–	5 to 10	< 5	5 to 10	10 to 50	10 to 50	A (A represents a residual substrate protein level of <50%)	A (A represents a residual substrate protein level of <50%)	A (A represents a residual substrate protein level of <50%)
CC1(C)CCC(CN2CC3CCC(C2)N3Cc2cc3c(cc2F)C(=O)N(C2CCC(=O)NC2=O)C3)=C(c2ccc(Cl)cc2)C1 (stereo not drawn) [GT-05494, 3-(5-((3-((4′-chloro-5,5-dimethyl-3,4,5,6-tetrahydro-[1,1′-biphenyl]-2-yl)methyl)-3,8-diazabicyclo[3.2.1]octan-8-yl)methyl)-6-fluoro-1-oxoisoindolin-2-yl)piperidine-2,6-dione]	100 to 500	–	–	–	–	–	100 to 500	500 to 1000	–	–	A (A represents a residual substrate protein level of <50%)	A (A represents a residual substrate protein level of <50%)	A (A represents a residual substrate protein level of <50%)

Second part, led by results:

IC50 (CCRF-CEM cells) [nM]	IC50 (MDA-MB-231 cells) [nM]	IC50 [1] [nM]	AUC(0-t) ([2]; p.o. 30 mg/kg) [ng·h/mL]	AUC(0-t) ([2]; p.o. 10 mg/kg) [ng·h/mL]	IC50 (Mino cells) [nM]	IC50 (MV-4-11 cells) [nM]	IC50 (MM.1S cells) [nM]	IC50 (Kasumi-1 cells) [nM]	IC50 (Daudi cells) [nM]	SMILES	residual substrate protein level, IKZF1 (IKZF1 protein)	residual substrate protein level, IKZF3 (IKZF3 protein)	residual substrate protein level, GSPT1 (GSPT1 protein)
–	–	160	–	≤ 500	–	–	–	–	–	O=C1CCC(N2Cc3cc(CC4CN(C(=O)c5ccccc5-c5ccc(Cl)cc5)C4)ccc3C2=O)C(=O)N1 (stereo not drawn) [GT-03922, 3-(5-((1-(4′-chloro-[1,1′-biphenyl]-2-carbonyl)azetidin-3-yl)methyl)-1-oxoisoindolin-2-yl)piperidine-2,6-dione]	A (A represents a residual substrate protein level of <50%)	A (A represents a residual substrate protein level of <50%)	A (A represents a residual substrate protein level of <50%)
–	–	1420	–	≤ 500	–	–	–	–	–	O=C1CCC(N2Cc3cc(CN4CCN(Cc5ccccc5-c5ccc(F)cc5)CC4)ccc3C2=O)C(=O)N1 (stereo not drawn) [GT-04256, 3-(5-((4-((4′-fluoro-[1,1′-biphenyl]-2-yl)methyl)piperazin-1-yl)methyl)-1-oxoisoindolin-2-yl)piperidine-2,6-dione]	A (A represents a residual substrate protein level of <50%)	A (A represents a residual substrate protein level of <50%)	A (A represents a residual substrate protein level of <50%)
5 to 10	–	520	–	–	10 to 50	10 to 50	10 to 50	10 to 50	100 to 500	O=C1CCC(N2Cc3cc(CC4CCN(C(=O)c5ccccc5-c5ccc(Cl)cc5)CC4)ccc3C2=O)C(=O)N1 (stereo not drawn) [GT-05467, 3-(5-((1-(4′-chloro-[1,1′-biphenyl]-2-carbonyl)piperidin-4-yl)methyl)-1-oxoisoindolin-2-yl)piperidine-2,6-dione]	B (B represents a residual substrate protein level of >50%)	B (B represents a residual substrate protein level of >50%)	A (A represents a residual substrate protein level of <50%)
5 to 10	–	330	–	–	5 to 10	5 to 10	5 to 10	10 to 50	10 to 50	O=C1CCC(N2Cc3cc(C=C4CN(C(=O)c5ccccc5-c5ccc(Cl)cc5)C4)ccc3C2=O)C(=O)N1 (stereo not drawn) [GT-05482, 3-(5-((1-(4′-chloro-[1,1′-biphenyl]-2-carbonyl)azetidin-3-ylidene)methyl)-1-oxoisoindolin-2-yl)piperidine-2,6-dione]	B (B represents a residual substrate protein level of >50%)	B (B represents a residual substrate protein level of >50%)	A (A represents a residual substrate protein level of <50%)
50 to 100	–	–	–	–	100 to 500	100 to 500	100 to 500	100 to 500	500 to 1000	O=C1CCC(N2C(=O)c3ccc(CN4CCN(Cc5ccccc5-c5ccc(Cl)cc5)CC4)cc3C2=O)C(=O)N1 (stereo not drawn) [GT-05497, 5-((4-((4′-chloro-[1,1′-biphenyl]-2-yl)methyl)piperazin-1-yl)methyl)-2-(2,6-dioxopiperidin-3-yl)isoindoline-1,3-dione]	B (B represents a residual substrate protein level of >50%)	A (A represents a residual substrate protein level of <50%)	A (A represents a residual substrate protein level of <50%)
5 to 10	–	560	–	–	5 to 10	–	< 5	–	10 to 50	O=C1CCC(N2Cc3cc(CN4CCN(Cc5ccccc5-c5ccc(Cl)cn5)CC4)ccc3C2=O)C(=O)N1 (stereo not drawn) [GT-05860, 3-(5-((4-(2-(5-chloropyridin-2-yl)benzyl)piperazin-1-yl)methyl)-1-oxoisoindolin-2-yl)piperidine-2,6-dione]	A (A represents a residual substrate protein level of <50%)	A (A represents a residual substrate protein level of <50%)	A (A represents a residual substrate protein level of <50%)
